Source: patent US5254589A, “Sulfonyl urea and carbamate ACAT inhibitors” (priority 1991, dated 1993)

Columns and labels:
[1] = target: T1, acyl-CoA:cholesterol acyltransferase (ACAT) (Oryctolagus cuniculus, UniProt G1SFD9); assay: In vitro ACAT inhibition (IAI): formation of radiolabeled cholesterol oleate from radiolabeled oleic acid in rabbit intestinal microsomes; format: biochemical; details: inhibition of acylation of cholesterol by oleic acid
T1 construct: in a tissue preparation containing rabbit intestinal microsomes; from tissue; host or cells: rabbit intestine, microsomes
T1 sequence (G1SFD9 1-524): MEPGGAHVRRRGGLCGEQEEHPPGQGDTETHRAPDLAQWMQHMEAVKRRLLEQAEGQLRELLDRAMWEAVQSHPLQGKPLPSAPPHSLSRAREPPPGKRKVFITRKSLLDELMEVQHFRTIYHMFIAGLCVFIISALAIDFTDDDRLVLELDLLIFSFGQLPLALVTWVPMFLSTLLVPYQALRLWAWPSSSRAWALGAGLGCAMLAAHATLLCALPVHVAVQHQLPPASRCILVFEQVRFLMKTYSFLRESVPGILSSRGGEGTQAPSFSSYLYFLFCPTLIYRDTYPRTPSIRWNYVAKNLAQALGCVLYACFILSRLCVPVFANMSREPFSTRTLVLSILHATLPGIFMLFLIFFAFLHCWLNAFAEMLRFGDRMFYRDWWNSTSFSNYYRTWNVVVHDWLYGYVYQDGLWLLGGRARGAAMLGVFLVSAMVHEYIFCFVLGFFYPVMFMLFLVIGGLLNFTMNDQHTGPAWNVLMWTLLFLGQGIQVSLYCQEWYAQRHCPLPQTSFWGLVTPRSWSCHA
From the text: As shown by the data presented below in Table 1, the compounds of the present invention are potent inhibitors of the enzyme acyl-CoA:cholesterolacyltransferase (ACAT), and are thus effective in inhibiting the esterification and transport of cholesterol across the intestinal cell wall. The compounds of the present invention are thus useful in pharmaceutical formulations for the treatment of hypercholesterolemia or atherosclerosis. The ability of representative compounds of the present invention to inhibit ACAT was measured using an in vitro test more fully described in F. J. Field and R. G. Salone, Biochemica et Biophysica 712:557-570 (1982). The test assesses the ability of a test compound to inhibit the acylation of cholesterol by oleic acid by measuring the amount of radiolabeled cholesterol oleate formed from radiolabeled oleic acid in a tissue preparation containing rabbit intestinal microsomes.

[2] = In vivo screen APCC: blood cholesterol in rats fed a high fat, high cholesterol diet with 0.5% cholic acid; set-up: species or system male Sprague-Dawley rats; details: 16 h, rat, 30 mg/kg unless otherwise noted, dosed at 4 PM, high cholesterol diet overnight, blood sampled at 8 AM, read-out: APCC (% .increment.TC)
From the text: In one in vivo screen designated APCC, male Sprague-Dawley rats (200 to 225 g) were randomly divided into treatment groups and dosed at 4 PM with either vehicle (CMC/Tween) or suspensions of compounds in vehicle. The normal chow diet was then replaced with a high fat, high cholesterol diet with 0.5% cholic acid. The rats consumed this diet ad libitum during the night and were sacrificed at 8 AM to obtain blood samples for cholesterol analysis using standard procedures. Statistical differences between mean cholesterol values for the same vehicle were determined using analysis of variance followed by Fisher's least significant test. The compounds were dosed at 30 mg/kg unless otherwise noted.

| Compound | IC50 [1] [nM] | change in vivo at 30 mg/kg [2] [%] |
| --- | --- | --- |
| CCCCCCCCC(c1ccccc1)S(=O)(=O)NC(=O)Nc1c(C(C)C)cccc1C(C)C (stereo not shown) [Example 15, N-[2,6-Bis(1-methylethyl)phenyl]-N'-(1-phenyl-1-nonylsulfonyl)urea] | 9200 | -75 |
| CCCCCCCCCCCCCCS(=O)(=O)N(C)C(=O)Nc1c(C(C)C)cccc1C(C)C [Example 3, N-[2,6-Bis(1-methylethyl)phenyl]-N'-methyl-N'-(tetradecylsulfonyl)urea] | > 5000 | -34 |
| CCCCCCCCCCCCCCS(=O)(=O)NC(=O)Nc1ccc(F)cc1F [Example 10, N-(2,4-Difluorophenyl)-N'-(tetradecylsulfonyl)urea] | 5000 | -14 |
| CCCCCCCCS(=O)(=O)NC(=O)Nc1c(C(C)C)cccc1C(C)C [Example 5, N-[2,6-Bis(1-methylethyl)phenyl]-N'-(octylsulfonyl)urea] | > 5000 |  |
| CCCCCCCCCCCCCCCCS(=O)(=O)NC(=O)Nc1c(C(C)C)cccc1C(C)C [Example 7, N-[2,6-Bis(1-methylethyl)phenyl]-N'-(hexadecylsulfonyl)urea] | 1270 | -64 |
| CCCCCCCCCCS(=O)(=O)NC(=O)Nc1c(C(C)C)cccc1C(C)C [Example 8, N-[2,6-Bis(1-methylethyl)phenyl]-N'-(decylsulfonyl)urea] | 13000 | -31 |
| CCCCCCCCCCCCCC(c1ccccc1)S(=O)(=O)NC(=O)Nc1c(C(C)C)cccc1C(C)C (stereo not shown) [Example 14, N-[2,6-Bis(1-methylethyl)phenyl]-N'-(1-phenyl-1-tetradecylsulfonyl)urea] | 2000 | -72 |

Stronger by IC50 [1], values ahead:

| IC50 [1] [nM] | Compound | change in vivo at 30 mg/kg [2] [%] |
| --- | --- | --- |
| 1190 | CCCCCCCCCCCCS(=O)(=O)NC(=O)Nc1c(C(C)C)cccc1C(C)C [Example 6, N-[2,6-Bis(1-methylethyl)phenyl]-N'-(dodecylsulfonyl)urea] | -63 |
| 1020 | CCCCCCCCCCCCCC(C)S(=O)(=O)NC(=O)Nc1c(C(C)C)cccc1C(C)C (stereo not shown) [Example 1, N-[2,6-Bis(1-methylethyl)phenyl]-N'-(2-pentadecylsulfonyl)urea] | -76 |
| 510 | CCCCCCCCCCCCCCS(=O)(=O)N(Cc1ccccc1)C(=O)Nc1c(C(C)C)cccc1C(C)C [Example 4] |  |
| 86 | CCCCCCCCCCCCS(=O)(=O)N(C)C(=O)Nc1c(C(C)C)cccc1C(C)C [Example 11] | -49 |
| 830 | CCCCCCCCCCCCCCS(=O)(=O)NC(=O)Nc1c(C(C)C)cccc1C(C)C [Example 2, N-[2,6-Bis(1-methylethyl)phenyl]-N'-(tetradecylsulfonyl)urea] | -56 |
